# How the values were obtained:
# [1] = target: Adenosine receptor A2a (Sus scrofa)
# [2] = target: Adenosine receptor A2a (Rattus norvegicus, UniProt P30543)
# Description: Receptor binding affinity for the adenosine A2A receptor was determined using [3H]ZM-241385 as a radioligand in rat
# [3] = target: T1, Adenosine receptor A3 (Homo sapiens, UniProt P0DMS8); test: Binding affinity for Adenosine A3A receptor
# T1 sequence (P0DMS8 whole entry): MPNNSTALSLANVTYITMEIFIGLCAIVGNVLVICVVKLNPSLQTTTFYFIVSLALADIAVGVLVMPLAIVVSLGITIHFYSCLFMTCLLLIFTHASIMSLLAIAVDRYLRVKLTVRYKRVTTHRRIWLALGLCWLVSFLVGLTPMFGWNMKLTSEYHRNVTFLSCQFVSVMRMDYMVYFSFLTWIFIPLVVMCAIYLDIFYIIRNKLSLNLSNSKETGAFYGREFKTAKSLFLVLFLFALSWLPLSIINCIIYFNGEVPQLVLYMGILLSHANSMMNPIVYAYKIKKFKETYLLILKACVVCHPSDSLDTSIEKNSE
# [4] = target: T2, Adenosine receptor A1 (Homo sapiens, UniProt P30542); test: Binding affinity for adenosine (ADO) A1 receptor in CHO cells; format: cell-based
# T2 sequence (P30542 whole entry): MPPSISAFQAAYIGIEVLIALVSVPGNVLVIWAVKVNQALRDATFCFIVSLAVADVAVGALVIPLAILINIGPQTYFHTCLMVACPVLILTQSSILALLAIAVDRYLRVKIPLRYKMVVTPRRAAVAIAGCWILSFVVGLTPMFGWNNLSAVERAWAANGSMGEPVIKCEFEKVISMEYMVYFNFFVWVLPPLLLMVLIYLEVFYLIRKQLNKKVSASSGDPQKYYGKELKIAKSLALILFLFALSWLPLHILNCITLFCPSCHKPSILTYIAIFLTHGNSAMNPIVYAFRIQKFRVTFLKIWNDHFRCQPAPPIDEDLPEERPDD
# Sequence of Adenosine receptor A2a (P30543 whole entry): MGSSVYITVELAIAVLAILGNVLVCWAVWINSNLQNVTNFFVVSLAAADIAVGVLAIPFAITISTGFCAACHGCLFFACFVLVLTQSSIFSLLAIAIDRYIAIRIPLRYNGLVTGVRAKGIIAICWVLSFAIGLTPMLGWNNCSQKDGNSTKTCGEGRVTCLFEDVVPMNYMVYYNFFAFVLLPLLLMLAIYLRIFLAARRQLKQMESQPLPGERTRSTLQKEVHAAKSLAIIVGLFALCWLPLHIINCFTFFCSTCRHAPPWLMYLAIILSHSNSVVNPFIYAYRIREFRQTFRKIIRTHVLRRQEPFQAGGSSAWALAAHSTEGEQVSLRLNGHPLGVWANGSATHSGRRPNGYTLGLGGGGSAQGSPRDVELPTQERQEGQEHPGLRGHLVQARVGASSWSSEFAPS
SMILES,Ki [1] [nM],Ki [2] [nM],Ki [3] [nM],Ki [4] [nM]
CN(C)C(=O)Cn1cc(-c2nc(N)c3ncn([C@@H]4O[C@H](CO)[C@@H](O)[C@H]4O)c3n2)cn1,> 100000,21000,,
Nc1nc(-c2cnn(CCCC3CCCCC3)c2)nc2c1ncn2[C@@H]1O[C@H](CO)[C@@H](O)[C@H]1O,6680,2620,,
CCOC(=O)c1cnn(-c2nc(N)c3ncn([C@@H]4O[C@H](CO)[C@@H](O)[C@H]4O)c3n2)c1,1280,60,,
NC(=O)c1cnn(-c2nc(N)c3ncn([C@@H]4O[C@H](CO)[C@@H](O)[C@H]4O)c3n2)c1,1350,350,,
Nc1nc(-c2cnn(CCc3ccccc3)c2)nc2c1ncn2[C@@H]1O[C@H](CO)[C@@H](O)[C@H]1O,5900,2260,,
CCCCCn1cc(-c2nc(N)c3ncn([C@@H]4O[C@H](CO)[C@@H](O)[C@H]4O)c3n2)cn1,2140,2590,> 10000,
Nc1nc(N/N=C\C2CCCCC2)nc2c1ncn2[C@@H]1O[C@H](CO)[C@@H](O)[C@H]1O,,66,,
CNC(=O)Cn1cc(-c2nc(N)c3ncn([C@@H]4O[C@H](CO)[C@@H](O)[C@H]4O)c3n2)cn1,> 100000,> 100000,,
Cc1cc(-c2ccccc2)nn1-c1nc(N)c2ncn([C@@H]3O[C@H](CO)[C@@H](O)[C@H]3O)c2n1,> 100000,,,
Cn1cc(-c2nc(N)c3ncn([C@@H]4O[C@H](CO)[C@@H](O)[C@H]4O)c3n2)cn1,> 100000,> 100000,,
COc1ccc(-c2cnn(-c3nc(N)c4ncn([C@@H]5O[C@H](CO)[C@@H](O)[C@H]5O)c4n3)c2)cc1,560,190,,
C=CCCCn1cc(-c2nc(N)c3ncn([C@@H]4O[C@H](CO)[C@@H](O)[C@H]4O)c3n2)cn1,1710,470,,
Nc1nc(-c2cnn(CC(=O)O)c2)nc2c1ncn2[C@@H]1O[C@H](CO)[C@@H](O)[C@H]1O,> 100000,> 100000,,
CN(C)C(=O)c1cnn(-c2nc(N)c3ncn([C@@H]4O[C@H](CO)[C@@H](O)[C@H]4O)c3n2)c1,440,140,,
CCCCc1c(C)nn(-c2nc(N)c3ncn([C@@H]4O[C@H](CO)[C@@H](O)[C@H]4O)c3n2)c1C,> 100000,,,
Nc1nc(-c2cnn(Cc3ccccc3)c2)nc2c1ncn2[C@@H]1O[C@H](CO)[C@@H](O)[C@H]1O,1580,1610,,
Cc1ccc(-c2cnn(-c3nc(N)c4ncn([C@@H]5O[C@H](CO)[C@@H](O)[C@H]5O)c4n3)c2)cc1,490,190,,
CCCNC(=O)c1cnn(-c2nc(N)c3ncn([C@@H]4O[C@H](CO)[C@@H](O)[C@H]4O)c3n2)c1,120,50,,
CC(C)(C)c1ccc(Cn2cc(-c3nc(N)c4ncn([C@@H]5O[C@H](CO)[C@@H](O)[C@H]5O)c4n3)cn2)cc1,2420,5290,,
Nc1nc(-c2cn[nH]c2)nc2c1ncn2[C@@H]1O[C@H](CO)[C@@H](O)[C@H]1O,> 100000,> 100000,,
CCCCCCCCCCn1cc(-c2nc(N)c3ncn([C@@H]4O[C@H](CO)[C@@H](O)[C@H]4O)c3n2)cn1,> 100000,6110,,
CCCc1c(C)nn(-c2nc(N)c3ncn([C@@H]4O[C@H](CO)[C@@H](O)[C@H]4O)c3n2)c1C,> 100000,,,
CCNC(=O)c1cnn(-c2nc(N)c3ncn([C@@H]4O[C@H](CO)[C@@H](O)[C@H]4O)c3n2)c1,380,60,,
CCNC(=O)Cn1cc(-c2nc(N)c3ncn([C@@H]4O[C@H](CO)[C@@H](O)[C@H]4O)c3n2)cn1,> 100000,> 100000,,
Nc1nc(-c2cnn(CC3CCCCC3)c2)nc2c1ncn2[C@@H]1O[C@H](CO)[C@@H](O)[C@H]1O,880,220,,
CNC(=O)c1cnn(-c2nc(N)c3ncn([C@@H]4O[C@H](CO)[C@@H](O)[C@H]4O)c3n2)c1 [REGADENOSON ANHYDROUS],,,> 10000,> 16500

# Source: ChEMBL document CHEMBL1134910 (Bioorg Med Chem Lett, 2002)
